According to patent publication US20110183978A1, “Phenylpyri(mi)dinylazoles” (Bayer CropScience AG, priority 2009, published 2011):
Read-outs that look alike come from different tables or passages of the source.

How the values were obtained:
Sphaerotheca fuliginea = assay: Example L: in vivo test on Sphaerotheca fuliginea (powdery mildew on cucumber/protective); conditions: Podosphaera fuliginea, 168 h, cucumber, protective, assessment 7 days after inoculation, read-out: % Wirkungsgrad
Description: (§1) Solvent: 49 parts by weight N,N-dimethylformamide Emulsifier: 1 part by weight alkylaryl polyglycol ethers For the preparation of a suitable active substance preparation, 1 part by weight of active substance is mixed with the stated quantities of solvent and emulsifier and the concentrate is diluted to the desired concentration with water. For the testing for protective activity, young cucumber plants are sprayed with the active substance preparation at the stated application dosage. One day after the treatment, the plants are inoculated with a spore suspension of Sphaerotheca fuliginea. Next, the plants are placed in a greenhouse at 70% relative atmospheric humidity and a temperature of 23° C. 7 days after the inoculation, the assessment takes place.

Fusarium graminearum = assay: microbe, parasite or virus in culture; assay type: cell-based
Alternaria solani = assay: Example M: in vivo test on Alternaria solani (leaf blotch disease/tomato/protective); conditions: 168 h, tomato, protective, 500 ppm active substance, assessed 7 days after inoculation, read-out: % Wirkungsgrad (activity level)
Description: as §1, with “tomato” for “cucumber”, “One day after the treatment, the plants are inoculated with a spore suspension of Sphaerotheca fuliginea. Next, the plants are placed in a greenhouse at 70% relative atmospheric humidity and a temperature of 23° C.” left out

[1] = LogPA (logP of the stated pure compound or, in a mixture, of the main isomer, 1-substituted 3-aryl-1H-pyrazole)
[2] = 72 h, read-out: % Inhibition des Pilzwachstums bei 50 μM
[3] = 168 h, read-out: % Inhibition der DON/AcDON produktion bei 50 μM

Cc1cc(-c2cn(C3CCCCO3)nc2-c2ccc(F)cc2)ccn1 (stereo not shown) [Compound 31]
pest or weed control at 500 ppm (Sphaerotheca fuliginea): 70% | chromatographic logP (physchem; [1]): 1.38

O=C1OCCC1n1cc(-c2ccncc2)c(-c2ccc(F)cc2)n1 (stereo not shown) [Compound 142]
inhibition at 50 µM (Fusarium graminearum; [2]): 0% | inhibition at 50 µM (Fusarium graminearum; [3]): 89% | pest or weed control at 500 ppm (Alternaria solani): 94% | chromatographic logP (physchem; [1]): 0.95

CC(C)Cn1cc(-c2ccnc(NC(=O)CC3CC3)c2)c(-c2ccc(F)cc2)n1 [Compound 158]
pest or weed control at 500 ppm (Sphaerotheca fuliginea): 97% | pest or weed control at 500 ppm (Alternaria solani): 94% | chromatographic logP (physchem; [1]): 3.03

CC(C)C(=O)Cn1cc(-c2ccncc2)c(-c2ccc(F)cc2)n1 [Compound 178]
pest or weed control at 500 ppm (Sphaerotheca fuliginea): 75% | pest or weed control at 500 ppm (Alternaria solani): 94% | chromatographic logP (physchem; LogPA): 1.37

CC(C)OC(=O)Nc1cc(-c2cn(C(C)C)nc2-c2ccc(F)cc2)ccn1 [Compound 181]
pest or weed control at 500 ppm (Sphaerotheca fuliginea): 85% | pest or weed control at 500 ppm (Alternaria solani): 94% | chromatographic logP (physchem; LogPA): 2.99

CC(C)On1cc(-c2ccncc2)c(-c2ccc(F)cc2)n1 [Compound 227]
inhibition at 50 µM (Fusarium graminearum; [2]): 100% | inhibition at 50 µM (Fusarium graminearum; [3]): 100% | pest or weed control at 500 ppm (Alternaria solani): 95% | chromatographic logP (physchem; LogPA): 1.58

CC(C)Cn1cc(-c2ccncc2-c2ccc(F)cc2)c(-c2ccc(F)cc2)n1 [Compound 228]
pest or weed control at 500 ppm (Sphaerotheca fuliginea): 75% | pest or weed control at 500 ppm (Alternaria solani): 70% | chromatographic logP (physchem; LogPA): 2.96

COCC(=O)Nc1cc(-c2cn(Cc3ccccc3F)nc2-c2ccc(F)cc2)ccn1 [Compound 247]
inhibition at 50 µM (Fusarium graminearum; [2]): 96% | inhibition at 50 µM (Fusarium graminearum; [3]): 99% | pest or weed control at 500 ppm (Alternaria solani): 94% | chromatographic logP (physchem; LogPA): 3.09

CC(c1ccccc1F)n1cc(-c2ccnc(NC(=O)CC3CC3)c2)c(-c2ccc(F)cc2)n1 (stereo not shown) [Compound 250]
pest or weed control at 500 ppm (Sphaerotheca fuliginea): 84% | pest or weed control at 500 ppm (Alternaria solani): 94% | chromatographic logP (physchem; LogPA): 3.54

O=C(CC1CC1)Nc1cc(-c2cn(Cc3ccccc3F)nc2-c2ccc(F)cc2)ccn1 [Compound 253]
pest or weed control at 500 ppm (Sphaerotheca fuliginea): 92% | pest or weed control at 500 ppm (Alternaria solani): 94% | chromatographic logP (physchem; LogPA): 3.17

CC(C)C(=O)Nc1cc(-c2cn(Cc3ccccc3F)nc2-c2ccc(F)cc2)ccn1 [Compound 256]
pest or weed control at 500 ppm (Sphaerotheca fuliginea): 92% | pest or weed control at 500 ppm (Alternaria solani): 94% | chromatographic logP (physchem; LogPA): 3.03

CC(C)C(=O)Nc1cc(-c2c(-c3ccc(F)cc3O)nn(C)c2OC(F)F)ccn1 [Compound 257]
inhibition at 50 µM (Fusarium graminearum; [2]): 0% | inhibition at 50 µM (Fusarium graminearum; [3]): 94% | pest or weed control at 500 ppm (Alternaria solani): 94% | chromatographic logP (physchem; LogPA): 2.44

O=C(Nc1cc(-c2cn(Cc3ccccc3F)nc2-c2ccc(F)cc2)ccn1)C1CC1 [Compound 262]
inhibition at 50 µM (Fusarium graminearum; [2]): 35% | inhibition at 50 µM (Fusarium graminearum; [3]): 99% | pest or weed control at 500 ppm (Alternaria solani): 95% | chromatographic logP (physchem; LogPA): 2.77

CCOC(=O)Nc1cc(-c2cn(CC(C)C)nc2-c2ccc(F)c(C#N)c2)ccn1 [Compound 265]
inhibition at 50 µM (Fusarium graminearum; [2]): 9% | inhibition at 50 µM (Fusarium graminearum; [3]): 98% | chromatographic logP (physchem; LogPA): 3.19

CCC(=O)Nc1cc(-c2cn(C(C(=O)OC)C(C)C)nc2-c2ccc(F)cc2)ccn1 (stereo not shown) [Compound 274]
pest or weed control at 500 ppm (Sphaerotheca fuliginea): 94% | pest or weed control at 500 ppm (Alternaria solani): 95% | chromatographic logP (physchem; LogPA): 2.67

CC(C)C(=O)Nc1cc(-c2cn(CC3OCCO3)nc2-c2ccc(F)cc2)ccn1 [Compound 276]
pest or weed control at 500 ppm (Sphaerotheca fuliginea): 99% | pest or weed control at 500 ppm (Alternaria solani): 95% | chromatographic logP (physchem; LogPA): 1.99

COC(=O)C(C(C)C)n1cc(-c2ccnc(NC(=O)C(C)C)c2)c(-c2ccc(F)cc2)n1 (stereo not shown) [Compound 277]
pest or weed control at 500 ppm (Sphaerotheca fuliginea): 94% | pest or weed control at 500 ppm (Alternaria solani): 100% | chromatographic logP (physchem; LogPA): 3.05

CCC(=O)Nc1cc(-c2cn(CC3OCCO3)nc2-c2ccc(F)cc2)ccn1 [Compound 278]
pest or weed control at 500 ppm (Sphaerotheca fuliginea): 89% | pest or weed control at 500 ppm (Alternaria solani): 95% | chromatographic logP (physchem; LogPA): 1.59

CC(C)Cn1cc(-c2ccnc(NC3COC3)n2)c(-c2ccc(F)cc2)n1 [Compound 279]
pest or weed control at 500 ppm (Sphaerotheca fuliginea): 100% | pest or weed control at 500 ppm (Alternaria solani): 70% | chromatographic logP (physchem; LogPA): 2.35

CC(C)n1cc(-c2ccnc3[nH]cnc23)c(-c2ccc(F)cc2)n1 [Compound 280]
pest or weed control at 500 ppm (Sphaerotheca fuliginea): 93% | pest or weed control at 500 ppm (Alternaria solani): 95% | chromatographic logP (physchem; LogPA): 1.82

CC(C)Cn1cc(-c2ccnc(NC3CC3)n2)c(-c2ccc(F)cc2)n1 [Compound 281]
pest or weed control at 500 ppm (Sphaerotheca fuliginea): 94% | pest or weed control at 500 ppm (Alternaria solani): 95% | chromatographic logP (physchem; LogPA): 2.41

Cc1cn(-c2cc(-c3cn(C(C)C)nc3-c3ccc(F)cc3)ccn2)cn1 [Compound 283]
pest or weed control at 500 ppm (Sphaerotheca fuliginea): 78% | pest or weed control at 500 ppm (Alternaria solani): 95% | chromatographic logP (physchem; LogPA): 2.05

CC(C)Cn1cc(-c2ccnc(NC(C)(C)C)n2)c(-c2ccc(F)cc2)n1 [Compound 284]
pest or weed control at 500 ppm (Sphaerotheca fuliginea): 91% | pest or weed control at 500 ppm (Alternaria solani): 100% | chromatographic logP (physchem; LogPA): 2.94
